One data set deals with Pythium ultimum. Description: Pythium ultimum / liquid culture (seedling damping off). It is filed as cell-based. The settings on record: Globisporangium ultimum, potato dextrose broth, 24° C., inhibition of growth determined photometrically 2-3 days after application, read-out: disease control. As to the method:
8 Pythium ultimum/Liquid Culture (Seedling Damping Off) Mycelia fragments and oospores of a newly grown liquid culture of the fungus were directly mixed into nutrient broth (potato dextrose broth). After placing a DMSO solution of test compound into a 96-well format microtiter plate at an application rate of 200 ppm, the nutrient broth containing the fungal mycelia/spore mixture was added. The test plates were incubated at 24° C. and the inhibition of growth was determined photometrically 2-3 days after application.

The subject of data set [1] is Glomerella lagenarium (Colletotrichum Lagenarium). Description: Glomerella lagenarium (Colletotrichum lagenarium) / liquid culture (anthracnose). It is filed as cell-based. Conditions: Colletotrichum orbiculare, PDB, 24° C., inhibition of growth measured photometrically 3-4 days after application, read-out: disease control. The method, then:
10 Glomerella lagenarium (Colletotrichum Lagenarium)/Liquid Culture (Anthracnose): Conidia of the fungus from cryogenic storage were directly mixed into nutrient broth (PDB potato dextrose broth). After placing a DMSO solution of test compound into a 96-well microtiter plate at an application rate of 200 ppm, the nutrient broth containing the fungal spores was added. The test plates were incubated at 24° C. and the inhibition of growth was measured photometrically 3-4 days after application.

The test system of data set [2] is Mycosphaerella graminicola (Septoria tritici). Briefly: Mycosphaerella graminicola (Septoria tritici) / liquid culture (Septoria blotch). It is filed as cell-based. Conditions: Zymoseptoria tritici, PDB, 24° C., inhibition of growth determined photometrically 4-5 days after application, read-out: disease control. The method, then:
12 Mycosphaerella graminicola (Septoria tritici)/Liquid Culture (Septoria Blotch): Conidia of the fungus from cryogenic storage were directly mixed into nutrient broth (PDB potato dextrose broth). After placing a DMSO solution of test compound into a 96-well microtiter plate at an application rate of 200 ppm, the nutrient broth containing the fungal spores was added. The test plates were incubated at 24° C. and the inhibition of growth was determined photometrically 4-5 days after application.

The next data set relates to Gaeumannomyces Graminis. Briefly: Gaeumannomyces graminis / liquid culture (take-all of cereals). It is filed as cell-based. Conditions: PDB, 24° C., inhibition of growth determined photometrically 4-5 days after application, read-out: disease control. The method, then:
13 Gaeumannomyces Graminis/Liquid Culture (Take-all of Cereals): Mycelial fragments of the fungus from cryogenic storage were directly mixed into nutrient broth (PDB potato dextrose broth). […] The test plates were incubated at 24° C. and the inhibition of growth was determined photometrically 4-5 days after application.

The test system of a further data set is Plasmopara viticola. Briefly: whole plant or invertebrate. It is filed as in vivo. Conditions: foliar, read-out: disease control.
The subject of data set [3] is Monographella nivalis (Microdochium nivale). Briefly: Monographella nivalis (Microdochium nivale) / liquid culture (foot rot cereals). It is filed as cell-based. Conditions: PDB, 24° C., inhibition of growth determined photometrically 4-5 days after application, read-out: disease control. The method, then:
14 Monographella nivalis (Microdochium nivale)/liquid culture (foot rot cereals): Conidia of the fungus from cryogenic storage were directly mixed into nutrient broth (PDB potato dextrose broth). After placing a DMSO solution of test compound into a 96-well microtiter plate at an application rate of 200 ppm, the nutrient broth containing the fungal spores was added. The test plates were incubated at 24° C. and the inhibition of growth was determined photometrically 4-5 days after application.

The test system of a further data set is Fusarium culmorum. Briefly: microbe, parasite or virus in culture. It counts as cell-based. Conditions: read-out: disease control.
Data set [4] deals with Botryotinia fuckeliana (Botrytis cinerea). Description: Botryotinia fuckeliana (Botrytis cinerea) / liquid culture (gray mould). It is filed as cell-based. Conditions: Vogels broth, 24° C., inhibition of growth determined photometrically 3-4 days after application, read-out: disease control. The method, then: 9 Botryotinia fuckeliana (Botrytis cinerea)/liquid culture (Gray mould): Conidia of the fungus from cryogenic storage were directly mixed into nutrient broth (Vogels broth). After placing a DMSO solution of test compound into a 96-well microtiter plate at an application rate of 200 ppm, the nutrient broth containing the fungal spores was added. The test plates were incubated at 24° C. and the inhibition of growth was determined photometrically 3-4 days after application.

In data set [5] the test system is Mycosphaerella arachidis (Cercospora arachidicola). Description: Mycosphaerella arachidis (Cercospora arachidicola) / liquid culture (early leaf spot). The settings on record: PDB, 24° C., inhibition of growth determined photometrically 4-5 days after application, read-out: disease control. It is filed as cell-based. As to the method:
11 Mycosphaerella arachidis (Cercospora arachidicola)/Liquid Culture (Early Leaf Spot): Conidia of the fungus from cryogenic storage were directly mixed into nutrient broth (PDB potato dextrose broth). After placing a DMSO solution of test compound into a 96-well microtiter plate at an application rate of 200 ppm, the nutrient broth containing the fungal spores was added. The test plates were incubated at 24° C. and the inhibition of growth was determined photometrically 4-5 days after application.

The next data set concerns Sclerotinia sclerotiorum. Description: Sclerotinia sclerotiorum / liquid culture (cottony rot). It is filed as cell-based. Conditions: PDB, 24° C., inhibition of growth determined visually 3-4 days after application, read-out: disease control. As to the method: 17 Sclerotinia sclerotiorum/liquid culture (cottony rot): Mycelia fragments of a newly grown liquid culture of the fungus were directly mixed into nutrient broth (PDB potato dextrose broth). After placing a (DMSO) solution of the test compounds into a microtiter plate (96-well format) the nutrient broth containing the fungal material was added. The test plates were incubated at 24° C. and the inhibition of growth was determined visually 3-4 days after application.

The term melting point denotes the temperature, or range, at which the solid turns liquid. As to `Cc1ccc(-c2cc3c(cc2Cl)COB3O)cc1C` [Compound 2], the melting point was 155 to 165 °C. Also, the inhibition of growth at 200 ppm in the data set on Pythium ultimum was at least 80%. Further, the inhibition of growth at 200 ppm in data set [1] was at least 80%. Also, in data set [2], the inhibition of growth at 200 ppm was at least 80%. In addition, the inhibition of growth at 200 ppm with Gaeumannomyces Graminis is at least 80%.

Consider `OB1OCc2cc(Cl)c(-c3ccc(O)cc3)cc21` [Compound 11], for which the pest or weed control at 200 ppm with Plasmopara viticola was at least 80%. Moreover, the inhibition of growth at 200 ppm (in the data set with Pythium ultimum; in [3]) was at least 80% in each case.

`COc1ccc(OC)c(-c2cc3c(cc2Cl)COB3O)c1` [Compound 12] had a melting point of 95 to 115 °C. Further, the pest or weed control at 200 ppm in the data set with Plasmopara viticola was at least 80%. Also, the inhibition of growth at 200 ppm with Pythium ultimum is at least 80%. Moreover, in data set [1], the inhibition of growth at 200 ppm was at least 80%. Besides, in [2], the inhibition of growth at 200 ppm was at least 80%. In the data set with Gaeumannomyces Graminis, the inhibition of growth at 200 ppm is at least 80%. Besides, in data set [3], the inhibition of growth at 200 ppm was at least 80%.

With `Cc1nc2c(-c3cc4c(cc3Cl)COB4O)cccc2s1` [Compound 13, 4-(5-chloro-1-hydroxy-3H-2,1-benzoxaborol-6-yl)-2-methyl-1,3-benzothiazole], the inhibition of growth at 200 ppm (with Pythium ultimum; in data set [1]; in [2]; with Gaeumannomyces Graminis; in [3]) was at least 80% throughout.

As to `Cc1nc2cc(-c3cc4c(cc3Cl)COB4O)ccc2s1` [Compound 14, 5-(5-chloro-1-hydroxy-3H-2,1-benzoxaborol-6-yl)-2-methyl-1,3-benzothiazole], the pest or weed control at 200 ppm in the data set on Plasmopara viticola is at least 80%. Further, the inhibition of growth at 200 ppm (in the data set on Pythium ultimum; in data set [3]) was at least 80% each time.

In the case of `Cc1nc2cccc(-c3cc4c(cc3Cl)COB4O)c2s1` [Compound 15, 7-(5-chloro-1-hydroxy-3H-2,1-benzoxaborol-6-yl)-2-methyl-1,3-benzothiazole], in the data set with Plasmopara viticola, the pest or weed control at 200 ppm was at least 80%. Moreover, the inhibition of growth at 200 ppm (in the data set on Pythium ultimum; in [3]) was at least 80% throughout.

Regarding `OB1OCc2cc(Cl)c(-c3cccc4ncoc34)cc21` [Compound 16], the inhibition of growth at 200 ppm (with Pythium ultimum; in [1]; in [2]; with Gaeumannomyces Graminis; in data set [3]) was at least 80% each time.

For `OB1OCc2cc(Cl)c(-c3cc(Br)ccc3-n3cccn3)cc21` [Compound 17], the inhibition of growth at 200 ppm (in the data set on Pythium ultimum; in data set [1]; in [2]; with Gaeumannomyces Graminis; in data set [3]) was at least 80% in each case.

Take `OB1OCc2cc(Cl)c(-c3cc(-n4cccn4)ccc3Br)cc21` [Compound 18]: the inhibition of growth at 200 ppm (with Pythium ultimum; in data set [1]; in [2]; in the data set on Gaeumannomyces Graminis; in data set [3]) was at least 80% throughout.

For the molecule `CC(=O)Nc1ccc(F)cc1-c1cc2c(cc1Cl)COB2O` [Compound 19, N-[2-(5-chloro-1-hydroxy-3H-2,1-benzoxaborol-6-yl)-4-fluoro-phenyl]acetamide], the inhibition of growth at 200 ppm (with Pythium ultimum; in data set [2]; with Fusarium culmorum) was at least 80% in each case.

Consider `CC(=O)Nc1ccc(F)c(-c2cc3c(cc2Cl)COB3O)c1` [Compound 20, N-[3-(5-chloro-1-hydroxy-3H-2,1-benzoxaborol-6-yl)-4-fluoro-phenyl]acetamide], for which the inhibition of growth at 200 ppm (with Pythium ultimum; in [4]; in [1]; in data set [5]; in data set [2]; in the data set on Gaeumannomyces Graminis) was at least 80% throughout. Moreover, the inhibition of growth at 200 ppm (in data set [3]; in the data set with Fusarium culmorum; in the data set on Sclerotinia sclerotiorum) was at least 80% throughout.

In the case of `OB1OCc2cc(Cl)c(-c3cccc4[nH]c(-c5cscn5)nc34)cc21` [Compound 21], the inhibition of growth at 200 ppm (in the data set on Pythium ultimum; in [4]; in [5]) was at least 80% in each case.

With `Cc1cc(C2CC2)nc(Nc2ccccc2-c2cc3c(cc2Cl)COB3O)n1` [Compound 22], the inhibition of growth at 200 ppm in data set [4] and in data set [3] was at least 80% each time.

As for `Cc1cc(C2CC2)nc(Nc2cccc(-c3cc4c(cc3Cl)COB4O)c2)n1` [Compound 23], the inhibition of growth at 200 ppm in data set [3] was at least 80%.

Take `Cc1cc(C2CC2)nc(Nc2ccc(-c3cc4c(cc3Cl)COB4O)cc2)n1` [Compound 24]: in data set [3], the inhibition of growth at 200 ppm was at least 80%.

On to `COc1ccccc1-c1cc2c(cc1F)COB2O` [Compound 25], for which the melting point was 50 to 65 °C. The pest or weed control at 200 ppm with Plasmopara viticola was at least 80%. Also, the inhibition of growth at 200 ppm in the data set on Pythium ultimum was at least 80%. Moreover, the inhibition of growth at 200 ppm in data set [1] is at least 80%. In addition, the inhibition of growth at 200 ppm in data set [5] is at least 80%. The inhibition of growth at 200 ppm in [2] was at least 80%. Further, the inhibition of growth at 200 ppm in data set [3] is at least 80%. The inhibition of growth at 200 ppm in the data set with Fusarium culmorum is at least 80%. Besides, the inhibition of growth at 200 ppm with Sclerotinia sclerotiorum was at least 80%.

As to `COc1ccc(-c2cc3c(cc2F)COB3O)cc1` [Compound 26], the inhibition of growth at 200 ppm (in the data set with Pythium ultimum; in data set [1]; in [2]; in [3]; with Fusarium culmorum) was at least 80% each time.

`COc1cccc(-c2cc3c(cc2F)COB3O)c1` [Compound 27, 5-fluoro-6-(3-methoxy-phenyl)-3H-benzo[c][1,2] oxaborol-1-ol] gave a melting point of 118 to 120 °C. Further, in the data set with Plasmopara viticola, the pest or weed control at 200 ppm is at least 80%. Further, the inhibition of growth at 200 ppm in the data set with Pythium ultimum is at least 80%. Also, in [1], the inhibition of growth at 200 ppm was at least 80%. For the same molecule, the inhibition of growth at 200 ppm in data set [5] was at least 80%. For the same molecule, the inhibition of growth at 200 ppm in [2] is at least 80%. Moreover, in [3], the inhibition of growth at 200 ppm was at least 80%. Besides, the inhibition of growth at 200 ppm with Fusarium culmorum is at least 80%. Moreover, the inhibition of growth at 200 ppm in the data set with Sclerotinia sclerotiorum is at least 80%.

In turn, `N#Cc1ccc(-c2cc3c(cc2F)COB3O)cc1` [Compound 29] had a melting point of 270 to 272 °C. Besides, the inhibition of growth at 200 ppm in the data set on Pythium ultimum was at least 80%. Besides, in [3], the inhibition of growth at 200 ppm is at least 80%.

On to `COC(=O)c1cc(-c2cc3c(cc2Cl)COB3O)ccc1OC` [Compound 30], for which the inhibition of growth at 200 ppm (with Pythium ultimum; in [3]) was at least 80% throughout.

The molecule `OB1OCc2cc(F)c(-c3ccc(Cl)c(Cl)c3)cc21` [Compound 34] gave a melting point of 243 to 245 °C.

Source of the values: patent US20180000089A1, “NOVEL MICROBIOCIDES” (Syngenta Participations AG, priority 2015, published 2018).
